Assay [1] concerns field bindweed (Convolvulus arvensis). Put plainly: Test E pre-/postemergence: field bindweed. It is filed as in vivo. The settings on record: scale 0 to 100. From the text: (§1) Seeds of plant species selected from corn (Zea mays), soybean (Glycine max), velvetleaf (Abutilon theophrasti), lambsquarters (Chenopodium album), poinsettia, wild (wild poinsettia, Euphorbia heterophylla), pigweed, palmer (palmer pigweed, Amaranthus palmeri), waterhemp (common waterhemp, Amaranthus rudis), smartweed (ladysthumb smartweed, Polygonum persicaria), surinam grass (Brachiaria decumbens), crabgrass, large (large crabgrass, Digitaria sanguinalis), crabgrass, Brazil (Brazilian crabgrass, Digitaria horizontalis), panicum, fall (fall panicum, Panicum dichotomiflorum), foxtail, giant (giant foxtail, Setaria faberii), foxtail, green (green foxtail, Setaria viridis), goosegrass (Eleusine indica), johnsongrass (Sorghum halepense), ragweed (common ragweed, Ambrosia elation), barnyardgrass (Echinochloa crus-galli), sandbur (southern sandbur, Cenchrus echinatus), arrowleaf sida (Sida rhombifolia), ryegrass, Italian (Italian ryegrass, Lolium multiflorum), dayflower, (VA) (Virginia dayflower, Commelina virginica), field bindweed (Convolvulus arvensis), cocklebur (common cocklebur, Xanthium strumarium), morningglory (Ipomoea coccinea), nightshade (eastern black nightshade, Solanum ptycanthum), kochia (Kochia scoparia), nutsedge, yellow (yellow nutsedge, Cyperus esculentus) and beggarticks (hairy beggarticks, Bidens pilosa) were planted into a silt loam soil and treated preemergence with test chemicals formulated in a non-phytotoxic solvent mixture which included a surfactant. At the same time, plants selected from these crop and weed species were planted in pots containing a growing medium comprising spaghnum peat moss, vermiculite, wetting agent and starter nutrients and treated with postemergence applications of some of the test chemicals formulated in the same manner. Plants ranged in height from 2 to 18 cm for postemergence treatments (1- to 4-leaf stage).
(§2) Treated plants and controls were maintained in a greenhouse for 14 to 21 days, after which time all species were compared to controls and visually evaluated. Plant response ratings, summarized in Table E, are based on a scale of 0 to 100 where 0 is no effect and 100 is complete control. A dash (-) response means no test result.

Assay [2] has as its system pigweed, palmer (palmer pigweed, Amaranthus palmeri). Put plainly: Test E pre-/postemergence: pigweed, palmer. The settings on record: scale 0 to 100. Format: in vivo.
Source text: as §1, §2

The subject of assay [3] is velvetleaf (Abutilon theophrasti). The assay is described as follows: Test E pre-/postemergence: velvetleaf. The conditions noted are these: Preemergence, scale 0 to 100. It is filed as in vivo.
Source text: as §1, §2

The test system of assay [4] is nightshade (eastern black nightshade, Solanum ptycanthum). Put plainly: Test E pre-/postemergence: nightshade. Format: in vivo. The settings on record: Preemergence, scale 0 to 100.
Source text: as §1, §2

Assay [5] relates to cocklebur (common cocklebur, Xanthium strumarium). The assay is described as follows: Test F pre-/postemergence: cocklebur. Format: in vivo. The conditions noted are these: Preemergence.
Source text: (§3) Seeds of plant species selected from corn (Zea mays), soybean (Glycine max), velvetleaf (Abutilon theophrasti), lambsquarters (Chenopodium album), poinsettia, wild (wild poinsettia, Euphorbia heterophylla), pigweed, palmer (palmer pigweed, Amaranthus palmeri), waterhemp (common waterhemp, Amaranthus rudis), surinam grass (Brachiaria decumbens), crabgrass, Brazil (Brazilian crabgrass, Digitaria horizontalis), panicum, fall (fall panicum Panicum dichotomiflorum), crabgrass, large (large crabgrass, Digitaria sanguinalis), foxtail, giant (giant foxtail, Setaria faberii), foxtail, green (green foxtail Setaria viridis), goosegrass (Eleusine indica), ragweed (common ragweed, Ambrosia elatior), barnyardgrass (Echinochloa crus-galli), sandbur (southern sandbur, Cenchrus echinatus), arrowleaf sida (Sida rhombifolia), ryegrass, Italian (Italian ryegrass, Lolium multiflorum), dayflower, VA (Virginia (VA) dayflower, Commelina virginica), field bindweed (Convolvulus arvensis), cocklebur (common cocklebur, Xanthium strumarium), morningglory (Ipomoea coccinea), nightshade (eastern black nightshade, Solanum ptycanthum), kochia (Kochia scoparia), nutsedge, yellow (yellow nutsedge, Cyperus esculentus), johnsongrass (Sorghum halepense), smartweed (ladysthumb smartweed, Polygonum persicaria), and beggarticks (hairy beggarticks, Bidens pilosa), were planted into a silt loam soil and treated preemergence with test chemicals formulated in a non-phytotoxic solvent mixture which included a surfactant. At the same time, plants selected from these crop and weed species and also pigweed (Amaranthus retroflexus), waterhemp_RES1 (ALS/Triazine resistant common waterhemp, Amaranthus rudis) and waterhemp_RES2 (ALS/HPPD resistant common waterhemp, Amaranthus rudis) were planted in pots containing a planting medium comprising spaghnum peat moss, vermiculite, wetting agent and starter nutrients treated with postemergence applications of some of the test chemicals formulated in the same manner. Plants ranged in height from 2 to 18 cm for postemergence treatments (1- to 4-leaf stage).
as §2

Assay [6] has as its system sandbur (southern sandbur, Cenchrus echinatus). The assay is described as follows: Test F pre-/postemergence: sandbur. Format: in vivo.
Source text: as §3, §2

For a further assay, the system named is soybean (Glycine max). The assay is described as follows: Test F pre-/postemergence: soybean. Format: in vivo.
Source text: as §3, §2

For assay [7], the system named is crabgrass, large (large crabgrass, Digitaria sanguinalis). Put plainly: Test F pre-/postemergence: crabgrass, large. It is filed as in vivo. The settings on record: Preemergence.
Source text: as §3, §2

The subject of a further assay is Barnyardgrass. Put plainly: Test C postemergence: barnyardgrass. It is filed as in vivo, Echinochloa crus-galli. From the text: At the same time, plants selected from these crop and weed species and also barley (winter barley, Hordeum vulgare), canarygrass (Phalaris minor), chickweed (common chickweed, Stellaria media) windgrass (Apera spica-venti) and deadnettle (henbit deadnettle, Lamium amplexicaule) were planted in pots containing Redi-Earth® planting medium (Scotts Company, 14111 Scottslawn Road, Marysville, Ohio 43041) comprising spaghnum peat moss, vermiculite, wetting agent and starter nutrients and treated with postemergence applications of test chemicals formulated in the same manner. Plants ranged in height from 2 to 18 cm (1- to 4-leaf stage) for postemergence treatments.
Treated plants and controls were maintained in a greenhouse for 13 to 15 days, after which time all species were compared to controls and visually evaluated. Plant response ratings, summarized in Table C, are based on a scale of 0 to 100 where 0 is no effect and 100 is complete control. A dash (-) response means no test result.

Setting [8] is: 31 g ai/ha, scale 0 to 100 (0 no effect, 100 complete control).
Setting [9] is: Preemergence, 16 g ai/ha, scale 0 to 100 (0 no effect, 100 complete control).
Setting [10] is: Preemergence, 31 g ai/ha, scale 0 to 100 (0 no effect, 100 complete control).
[11] abbreviates: Preemergence, 125 g ai/ha, scale 0 to 100.
Where [12] appears, read: Postemergence, 8 g ai/ha, scale 0 to 100.
Setting [13] is: Postemergence, 16 g ai/ha, scale 0 to 100.
The mark [14] stands for this setting: Postemergence, 31 g ai/ha, scale 0 to 100.
[15] abbreviates: Postemergence, 62 g ai/ha, scale 0 to 100.
Where [16] appears, read: Postemergence, 125 g ai/ha, scale 0 to 100.
Setting [17] is: 62 g ai/ha, scale 0 to 100 (0 no effect, 100 complete control).

This note sets out measurements from patent US9302999B2, “Substituted triazoles as herbicides” (E. I. DU PONT DE NEMOURS AND COMPANY, priority 2012, dated 2016).

`Cc1nn(-c2ccc(F)cc2)nc1Cc1ccnc(C(F)(F)F)c1` [Compound 16, 4-[[2-(4-fluorophenyl)-5-methyl-2H-1,2,3-triazol-4-yl]methyl]-2-(trifluoromethyl)pyridine]: the “Plant response rating: Field Bindweed” value is 0 in assay [1] (Preemergence, 8 g ai/ha); 0 in assay [1] (Preemergence, 16 g ai/ha); 0 in assay [1] (Preemergence, 31 g ai/ha); 20 in assay [1] (Preemergence, 62 g ai/ha); 50 in assay [1] (Preemergence, 125 g ai/ha). Besides, the “Plant response rating: Pigweed, Palmer” value in [2] (Preemergence, 8 g ai/ha) came out at 95; in assay [2] (Preemergence, 16 g ai/ha), 98; in assay [2] (Preemergence, 31 g ai/ha), 98; in assay [2] (Preemergence, 62 g ai/ha), 98; in assay [2] (Preemergence, 125 g ai/ha), 100. Moreover, the “Plant response rating: Velvetleaf” value in [3] (8 g ai/ha) is recorded as 0; in [3] (16 g ai/ha), 20; in [3] (31 g ai/ha) it was 30; in assay [3] (62 g ai/ha), 80; in assay [3] (125 g ai/ha), 80. For the same compound, the “Plant response rating: Nightshade” value is recorded as 0 in assay [4] (8 g ai/ha); 0 in assay [4] (16 g ai/ha); 50 in [4] (31 g ai/ha); 100 in assay [4] (62 g ai/ha); 100 in [4] (125 g ai/ha).
Consider `Cc1nn(-c2ccc(C(F)(F)F)cc2)nc1Cc1ccnc(C(F)(F)F)c1` [Compound 47, 4-[[5-methyl-2-[4-(trifluoromethyl)phenyl]-2H-1,2,3-triazol-4-yl]methyl]-2-(trifluoromethyl)pyridine], for which the “Plant response rating: Field Bindweed” value in [1] (Postemergence, 250 g ai/ha) is listed as 65; in assay [1] (Postemergence, 31 g ai/ha), 40; in [1] (Preemergence, 16 g ai/ha), 25; in assay [1] (Preemergence, 31 g ai/ha) it was 25; in assay [1] (Preemergence, 62 g ai/ha), 50; in [1] (Preemergence, 125 g ai/ha), 85. Besides, the “Plant response rating: Field Bindweed” value in assay [1] (Preemergence, 250 g ai/ha) was found to be 100. In addition, the “Plant response rating: Pigweed, Palmer” value turned out to be 100 in assay [2] (Postemergence, 250 g ai/ha); 70 in [2] (Postemergence, 16 g ai/ha); 90 in assay [2] (Postemergence, 31 g ai/ha); 95 in assay [2] (Postemergence, 62 g ai/ha); 100 in assay [2] (Postemergence, 125 g ai/ha); 100 in assay [2] (Preemergence, 16 g ai/ha). Besides, the “Plant response rating: Pigweed, Palmer” value in assay [2] (Preemergence, 31 g ai/ha) is reported as 100; in assay [2] (Preemergence, 62 g ai/ha), 100; in assay [2] (Preemergence, 125 g ai/ha), 100; in assay [2] (Preemergence, 250 g ai/ha) it was 100. The “Plant response rating: Velvetleaf” value came out at 30 in assay [3] (16 g ai/ha); 40 in [3] (31 g ai/ha); 40 in [3] (62 g ai/ha); 75 in assay [3] (125 g ai/ha); 100 in assay [3] (250 g ai/ha). For the same compound, the “Plant response rating: Nightshade” value in assay [4] (31 g ai/ha) stood at 75; in [4] (62 g ai/ha) it was 98; in assay [4] (125 g ai/ha), 98; in assay [4] (250 g ai/ha), 98.
In the case of `Cc1nn(-c2ccc(F)cc2)nc1Oc1ccnc(C(F)(F)F)c1` [Compound 129, 4-[[2-(4-fluorophenyl)-5-methyl-2H-1,2,3-triazol-4-yl]oxy]-2-(trifluoromethyl)pyridine], the “Plant response rating: Field Bindweed” value is recorded as 0 in assay [1] (Preemergence, 8 g ai/ha); 0 in assay [1] (Preemergence, 16 g ai/ha); 0 in [1] (Preemergence, 31 g ai/ha); 35 in assay [1] (Preemergence, 62 g ai/ha); 35 in [1] (Preemergence, 125 g ai/ha). Further, the “Plant response rating: Pigweed, Palmer” value in [2] (Preemergence, 8 g ai/ha) is 30; in [2] (Preemergence, 16 g ai/ha), 80; in [2] (Preemergence, 31 g ai/ha), 100; in [2] (Preemergence, 62 g ai/ha), 100; in assay [2] (Preemergence, 125 g ai/ha), 100. Also, the “Plant response rating: Velvetleaf” value in assay [3] (8 g ai/ha) is 0; in assay [3] (16 g ai/ha), 0; in assay [3] (31 g ai/ha) it was 0; in [3] (62 g ai/ha), 20; in assay [3] (125 g ai/ha) it was 25. Further, the “Plant response rating: Nightshade” value in assay [4] (8 g ai/ha) was 0; in [4] (16 g ai/ha), 0; in [4] (31 g ai/ha), 0; in assay [4] (62 g ai/ha), 50; in assay [4] (125 g ai/ha) it was 60.
With `Fc1ccc(-n2nc(Cc3ccnc(C(F)(F)F)c3)c(OCC(F)(F)F)n2)cc1` [Compound 142], the “Plant response rating, Cocklebur” value amounted to 0 in assay [5] (16 g ai/ha, scale 0 to 100 (0 no effect, 100 complete control)); 0 in assay [5] (setting [8]); 0 in assay [5] (62 g ai/ha, scale 0 to 100). The “Plant response rating, Sandbur” value in assay [6] (setting [9]) came out at 5; in assay [6] (setting [10]), 5; in assay [6] (setting [11]) it was 70. The “Plant response rating, Soybean” value in the assay on soybean (Glycine max) (setting [9]) was 0; with soybean (Glycine max) (setting [10]) it was 0; in the assay with soybean (Glycine max) (setting [11]), 25. The “Plant response rating, Crabgrass, Large” value in [7] (setting [8]) turned out to be 20; in [7] (62 g ai/ha, scale 0 to 100) it was 98; in [7] (125 g ai/ha, scale 0 to 100), 100.
Consider `Cc1nn(-c2ccc(F)c(F)c2)nc1Oc1ccnc(C(F)(F)F)c1` [Compound 145], for which the “Plant response rating, Sandbur” value in [6] (setting [12]) stood at 10; in assay [6] (setting [13]) it was 20; in [6] (setting [14]), 30; in [6] (setting [15]) it was 35; in assay [6] (setting [16]), 35. Besides, the “Plant response rating, Soybean” value with soybean (Glycine max) (setting [12]) was 25; with soybean (Glycine max) (setting [13]), 35; in the assay with soybean (Glycine max) (setting [14]) it was 40; in the assay on soybean (Glycine max) (setting [15]), 50; with soybean (Glycine max) (setting [16]), 60.
Regarding `CCc1nn(-c2ccc(F)cc2)nc1Oc1ccnc(C(F)(F)F)c1` [Compound 166], the “Plant response rating, Barnyardgrass” value with Barnyardgrass (setting [8]) amounted to 10; with Barnyardgrass (setting [17]), 25; in the assay with Barnyardgrass (250 g ai/ha, scale 0 to 100), 60.
In the case of `CCCc1nn(-c2ccc(C(F)(F)F)c(F)c2)nc1Oc1ccnc(C(F)(F)F)c1` [Compound 185], the “Plant response rating, Barnyardgrass” value with Barnyardgrass (setting [8]) is 30; with Barnyardgrass (setting [17]), 35; with Barnyardgrass (250 g ai/ha, scale 0 to 100), 80.
